From PMC9033141, “Beta and Gamma Amino Acid-Substituted Benzenesulfonamides as Inhibitors of Human Carbonic Anhydrases” (Pharmaceuticals, 2022)
Where two headings read alike, the source gives them in different places.

Assays:
CAVII = biological target: T1, CAVII (Homo sapiens, UniProt P43166); experiment: Fluorescent thermal shift assay (FTSA), CAVII; assay type: binding; settings: FTSA, pH 7.0, 37 °C
T1 construct: made in house; host or cells: E. coli
Protocol: (§1) Human CA isozymes were expressed in E. coli (CAI, II, III, IV, VA, VB, VII, XII, XIII, XIV) or mammalian cells (CAVI and CAIX), chromatographically purified following the published protocols [47], and stored at −80 °C. The protein concentration was determined by UV absorption at 280 nm using Beer–Lambert law.
(§2) The QIAGEN Rotor-Gene Q was used to carry out the experiments, with a blue channel used for excitation (365 nm) and detection (460 nm). FTSA in this case relies on an extrinsic probe, 8-anilino-1-naphthalenesulfonate (ANS), to detect the fluorescence increase during protein denaturation, from which protein melting temperature (Tm) can be determined. […] The observed affinity of ligands for CAs was determined by plotting the Tm as a function of ligand concentration and then fitting a curve as described previously [48]. […] Samples were heated from 25 °C to 99 °C at the speed of 1 °C/min.
(§3) The intrinsic thermodynamic parameters were calculated as described in [40]. The intrinsic reaction of inhibitor binding to CA is shown in Equation (1). […] It is known that CA proteins bind sulfonamides only when water molecules are coordinated to the Zn(II) ion, and sulfonamides only bind to CA proteins when their amino group is deprotonated (confirmed by neutron crystallography [53, 54, 55]):(1) CA Zn^II−H2O+RSO2NH^−⇄ CA Zn^II−NH SO2R+H2O
(§4) When calculating Kd_int values, these protein and ligand fractions from Equation (1) have to be accounted for (Equations (2) and (3)). The intrinsic dissociation constant is calculated by multiplying Kd_obs value by the corresponding fractions of protein and ligand (Equation (4)). (2) fRSO2NH^−=10^pH−pKa_RSO2NH2/1+10^pH−pKa_RSO2NH2 (3) fCAZnH2O=1−10^pH−pKa_CAZnH2O/1+10^pH−pKa_CAZnH2O (4) Kd_int=Kd_obs×fRSO2NH^−×fCAZnH2O (5) ΔGint0=RTlnKd_int
(§5) The intrinsic standard Gibbs energy changes upon binding were calculated using Equation (5). Here, R—universal ideal gas constant (8.3144 J/mol·K), T—absolute temperature (310.15 K).

CAI = biological target: T2, CAI (Homo sapiens, UniProt P00915); experiment: biochemical; assay type: binding; settings: FTSA, pH 7.0, 37 °C; read-out: Observed Dissociation Constant (Kd_obs), CAI
T2 construct: made in house; host or cells: E. coli

CAVI = biological target: T3, CAVI (Homo sapiens, UniProt P23280); experiment: Fluorescent thermal shift assay (FTSA), CAVI; assay type: binding; settings: FTSA, pH 7.0, 37 °C; read-out: Observed Dissociation Constant (Kd_obs), CAVI;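 further: human CAVI expressed in mammalian cells, ANS fluorescence tracked during thermal unfolding, melting temperature fitted against ligand concentration, intrinsic values corrected for deprotonated sulfonamide and Zn-bound water fractions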
T3 construct: made in house
Protocol: as §1, §2, §3, §4, §5

CAII = biological target: T4, CAII (Homo sapiens, UniProt P00918); experiment: biochemical; assay type: binding; settings: FTSA, pH 7.0, 37 °C; read-out: Observed Dissociation Constant (Kd_obs), CAII
T4 construct: made in house; host or cells: E. coli
Protocol: as §1, §2
(§6) The intrinsic thermodynamic parameters were calculated as described in [40]. The intrinsic reaction of inhibitor binding to CA is shown in Equation (1).
as §4, §5

CAVB = biological target: T5, CAVB (Homo sapiens, UniProt Q9Y2D0); experiment: Fluorescent thermal shift assay (FTSA), CAVB; assay type: binding; settings: FTSA, pH 7.0, 37 °C; read-out: Observed Dissociation Constant (Kd_obs), CAVB
T5 construct: made in house; host or cells: E. coli

CAXIV = biological target: T6, CAXIV (Homo sapiens, UniProt Q9ULX7); experiment: Fluorescent thermal shift assay (FTSA), CAXIV; assay type: binding; settings: FTSA, pH 7.0, 37 °C; read-out: Observed Dissociation Constant (Kd_obs), CAXIV;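 further: recombinant human CA XIV from E. coli, ANS-based thermal shift: Kd_obs fitted from melting temperature versus ligand concentration, ΔGint from Kd_obs corrected for deprotonated sulfonamide and Zn-water fractions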
T6 construct: made in house; host or cells: E. coli
Protocol: as §1, §2, §3, §4, §5

CAIV = biological target: T7, CAIV (Homo sapiens, UniProt P22748); experiment: Fluorescent thermal shift assay (FTSA), CAIV; assay type: binding; settings: FTSA, pH 7.0, 37 °C; read-out: Observed Dissociation Constant (Kd_obs), CAIV;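 further: recombinant human enzyme, thermal denaturation followed by ANS fluorescence, melting temperature versus ligand concentration fitted for Kd_obs, intrinsic value corrected for deprotonated sulfonamide and Zn-bound water fractions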
T7 construct: made in house; host or cells: E. coli
Protocol: as §1, §2, §3, §4, §5

CAVA = biological target: T8, CAVA (Homo sapiens, UniProt P35218); experiment: Fluorescent thermal shift assay (FTSA), CAVA; assay type: binding; settings: FTSA, pH 7.0, 37 °C; read-out: Observed Dissociation Constant (Kd_obs), CAVA
T8 construct: made in house; host or cells: E. coli
Protocol: as §1, §2, §3, §4, §5

CAIX = biological target: T9, CAIX (Homo sapiens, UniProt Q16790); experiment: biochemical; assay type: binding; settings: FTSA, pH 7.0, 37 °C; read-out: Observed Dissociation Constant (Kd_obs), CAIX
T9 construct: made in house

CAIII = biological target: T10, CAIII (Homo sapiens, UniProt P07451); experiment: Fluorescent thermal shift assay (FTSA), CAIII; assay type: binding; settings: FTSA, pH 7.0, 37 °C; read-out: Observed Dissociation Constant (Kd_obs), CAIII
T10 construct: made in house; host or cells: E. coli
Protocol: as §1, §2, §3, §4, §5

CAXIII = CAXIII (Homo sapiens, UniProt Q8N1Q1); experiment: biochemical; settings: Observed Dissociation Constant (Kd_obs), FTSA, pH 7.0, 37 °C;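 further: recombinant human CAXIII melting temperature tracked by ANS fluorescence in thermal shift assay, Tm fitted against ligand concentration, intrinsic value corrects Kd for deprotonated sulfonamide and Zn-bound water fractions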
Protocol: as §1, §2, §6, §4, §5

CAXII = biological target: T11, CAXII (Homo sapiens, UniProt O43570); experiment: biochemical; assay type: binding; settings: FTSA, pH 7.0, 37 °C; read-out: Observed Dissociation Constant (Kd_obs), CAXII
T11 construct: made in house; host or cells: E. coli
Protocol: as §1, §2, §6, §4, §5

[1] = read-out: Observed Dissociation Constant (Kd_obs), CAVII
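Wherever Observed Dissociation Constant (Kd obs), CAXII is given: recombinant CAXII made in E. coli, ANS-fluorescence thermal shift with affinity fitted from Tm versus ligand concentration, intrinsic energy from Kd_obs corrected for deprotonated sulfonamide and Zn-water fractions.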

T2 sequence (P00915 whole entry): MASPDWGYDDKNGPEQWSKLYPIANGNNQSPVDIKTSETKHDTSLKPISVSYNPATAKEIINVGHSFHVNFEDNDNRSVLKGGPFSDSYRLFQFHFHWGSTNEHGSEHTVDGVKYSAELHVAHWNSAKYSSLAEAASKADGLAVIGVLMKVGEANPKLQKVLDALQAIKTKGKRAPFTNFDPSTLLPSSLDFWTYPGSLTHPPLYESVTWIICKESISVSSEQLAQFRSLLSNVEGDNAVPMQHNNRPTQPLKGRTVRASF
Chain of CAXIII (Q8N1Q1 whole entry): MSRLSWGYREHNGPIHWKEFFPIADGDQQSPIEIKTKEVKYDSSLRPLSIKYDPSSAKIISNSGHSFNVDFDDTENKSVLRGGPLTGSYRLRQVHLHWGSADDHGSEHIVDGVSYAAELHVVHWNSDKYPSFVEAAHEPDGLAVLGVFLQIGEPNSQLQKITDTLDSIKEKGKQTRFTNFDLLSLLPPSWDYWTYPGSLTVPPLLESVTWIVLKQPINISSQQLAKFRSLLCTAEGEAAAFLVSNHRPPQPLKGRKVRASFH
T8 sequence (P35218 39-305): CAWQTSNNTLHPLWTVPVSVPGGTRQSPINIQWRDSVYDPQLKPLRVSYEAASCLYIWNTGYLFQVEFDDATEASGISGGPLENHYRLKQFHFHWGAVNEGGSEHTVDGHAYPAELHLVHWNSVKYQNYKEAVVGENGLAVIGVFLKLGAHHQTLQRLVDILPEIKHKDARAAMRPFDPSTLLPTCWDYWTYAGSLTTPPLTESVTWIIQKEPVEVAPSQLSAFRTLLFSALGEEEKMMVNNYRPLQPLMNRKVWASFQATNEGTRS
T1 sequence (P43166 whole entry): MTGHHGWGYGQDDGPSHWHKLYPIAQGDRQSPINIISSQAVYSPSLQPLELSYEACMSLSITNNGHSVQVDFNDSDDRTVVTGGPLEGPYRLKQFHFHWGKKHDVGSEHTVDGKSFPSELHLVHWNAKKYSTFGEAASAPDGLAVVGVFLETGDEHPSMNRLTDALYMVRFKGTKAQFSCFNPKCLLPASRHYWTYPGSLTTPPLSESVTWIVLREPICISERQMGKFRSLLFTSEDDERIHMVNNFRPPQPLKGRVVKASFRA
T3 sequence (P23280 21-290 limits assumed): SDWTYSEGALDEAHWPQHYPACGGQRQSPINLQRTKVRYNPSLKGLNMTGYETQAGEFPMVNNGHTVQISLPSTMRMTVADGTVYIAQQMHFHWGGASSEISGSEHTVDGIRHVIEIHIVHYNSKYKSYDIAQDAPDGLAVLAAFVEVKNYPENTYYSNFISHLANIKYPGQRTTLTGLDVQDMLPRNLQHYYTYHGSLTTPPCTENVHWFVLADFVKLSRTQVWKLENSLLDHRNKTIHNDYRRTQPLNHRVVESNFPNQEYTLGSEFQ
T7 sequence (P22748 19-312): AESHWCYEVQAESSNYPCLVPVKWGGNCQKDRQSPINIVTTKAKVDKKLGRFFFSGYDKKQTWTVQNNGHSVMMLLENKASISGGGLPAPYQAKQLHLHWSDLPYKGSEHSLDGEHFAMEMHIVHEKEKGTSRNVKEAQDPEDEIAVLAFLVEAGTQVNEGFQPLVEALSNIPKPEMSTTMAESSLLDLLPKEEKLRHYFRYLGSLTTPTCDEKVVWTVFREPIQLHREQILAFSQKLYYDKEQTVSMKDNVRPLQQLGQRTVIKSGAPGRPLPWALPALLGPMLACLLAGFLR
T10 sequence (P07451 whole entry): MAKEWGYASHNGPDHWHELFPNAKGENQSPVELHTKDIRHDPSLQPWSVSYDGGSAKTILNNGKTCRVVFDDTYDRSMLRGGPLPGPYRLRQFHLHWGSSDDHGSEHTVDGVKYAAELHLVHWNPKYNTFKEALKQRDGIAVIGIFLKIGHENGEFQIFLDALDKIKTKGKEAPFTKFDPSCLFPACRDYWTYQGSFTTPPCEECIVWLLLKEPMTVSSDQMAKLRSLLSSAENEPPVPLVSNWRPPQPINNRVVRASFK
T5 sequence (Q9Y2D0 34-317): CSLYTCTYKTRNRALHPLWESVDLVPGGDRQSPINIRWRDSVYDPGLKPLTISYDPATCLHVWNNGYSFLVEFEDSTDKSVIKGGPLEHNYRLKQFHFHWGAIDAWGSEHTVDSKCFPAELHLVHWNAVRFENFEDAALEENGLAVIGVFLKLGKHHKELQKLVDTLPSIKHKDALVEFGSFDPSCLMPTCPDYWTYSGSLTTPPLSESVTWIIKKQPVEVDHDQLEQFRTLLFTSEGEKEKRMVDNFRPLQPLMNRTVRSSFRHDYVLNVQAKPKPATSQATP
T6 sequence (Q9ULX7 16-337): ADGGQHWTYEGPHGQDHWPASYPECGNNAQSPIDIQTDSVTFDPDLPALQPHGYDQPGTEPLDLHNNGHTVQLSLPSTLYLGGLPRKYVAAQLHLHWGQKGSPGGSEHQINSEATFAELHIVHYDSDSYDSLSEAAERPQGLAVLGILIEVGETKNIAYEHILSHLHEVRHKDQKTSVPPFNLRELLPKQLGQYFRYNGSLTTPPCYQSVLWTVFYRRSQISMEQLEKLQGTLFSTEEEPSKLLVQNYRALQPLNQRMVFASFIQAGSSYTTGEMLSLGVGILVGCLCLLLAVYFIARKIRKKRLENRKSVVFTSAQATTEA
T11 sequence (O43570 25-354): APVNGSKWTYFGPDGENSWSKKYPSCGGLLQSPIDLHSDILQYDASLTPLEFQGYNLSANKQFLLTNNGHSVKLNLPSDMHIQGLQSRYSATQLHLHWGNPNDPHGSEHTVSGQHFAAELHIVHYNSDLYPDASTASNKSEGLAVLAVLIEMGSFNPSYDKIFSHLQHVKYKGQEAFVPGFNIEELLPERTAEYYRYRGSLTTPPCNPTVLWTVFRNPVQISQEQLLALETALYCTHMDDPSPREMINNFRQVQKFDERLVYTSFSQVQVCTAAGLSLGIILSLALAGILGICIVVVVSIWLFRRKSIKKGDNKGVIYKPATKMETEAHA

| Kd (CAVII; [1]) [nM] | Kd (CAI) [nM] | Kd (CAVI) [nM] | Kd (CAII) [nM] | Kd (CAVB) [nM] | Kd (CAXIV) [nM] | Kd (CAIV) [nM] | melting point [°C] | Kd (CAVA) [nM] | Kd (CAIX) [nM] | Kd (CAIII) [nM] | Kd (CAXIII) [nM] | Kd (CAXII) [nM] | Kd (CAVII; Observed Dissociation Constant (Kd_obs), CAVII) [nM] | SMILES |
| --- | --- | --- | --- | --- | --- | --- | --- | --- | --- | --- | --- | --- | --- | --- |
| 110 | 67 | 1000 | 50 | 1100 | 50 | 1000 | 158 to 159 | 20000 | 33 | 15000 | 400 | 50 |  | NS(=O)(=O)c1ccc(NCC(CC(=O)NNC(=S)Nc2ccccc2)C(=O)NNC(=S)Nc2ccccc2)c(Cl)c1 (centres unmarked) [Compound 23b, 2,2′-(2-(((2-Chloro-4-sulfamoylphenyl)amino)methyl)succinyl)bis(N-phenylhydrazine-1-carbothioamide)] |
| 200 | 290 | 5000 | 50 | 1400 | 25 | 1800 | 232 to 233 | 20000 | 56 | ≥ 200000 | 130 | 1300 |  | Cc1ccc(C)n1NC(=O)CC(CNc1ccc(S(N)(=O)=O)cc1Cl)C(=O)Nn1c(C)ccc1C (centres unmarked) [Compound 19b, 2-(((2-Chloro-4-sulfamoylphenyl)amino)methyl)-N^1,N^4-bis(2,5-dimethyl-1H-pyrrol-1-yl)succinamide] |
| 10000 | 5000 | 20000 | 500 | 3300 | 330 | 2000 | 201 to 202 | 22000 | 100 | ≥ 200000 | 2900 | 13000 |  | Cc1cc(C)n(C(=O)CC(CNc2ccc(S(N)(=O)=O)cc2Cl)C(=O)n2nc(C)cc2C)n1 (centres unmarked) [Compound 20, 3-Chloro-4-((4-(3,5-dimethyl-1H-pyrazol-1-yl)-2-(3,5-dimethyl-1H-pyrazole-1-carbonyl)-4-oxobutyl)amino)benzenesulfonamide] |
| 330 | 5000 | 20000 | 1300 | 6700 | 1000 | 13000 | 294 to 295 | 6700 | 250 | ≥ 200000 | 1800 | 13000 |  | NS(=O)(=O)c1ccc(NCC(CC(=O)NN=Cc2ccc(C(=O)O)cc2)C(=O)NN=Cc2ccc(C(=O)O)cc2)c(Cl)c1 (centres unmarked) [Compound 18b, 4,4′-(((2-(((2-Chloro-4-sulfamoylphenyl)amino)methyl)succinyl)bis(hydrazin-2-yl-1-ylidene))bis(methaneylylidene))dibenzoic acid] |
| 250 | 670 | 10000 | 150 | 120 | 1000 | 1000 | 195 to 196 | ≥ 200000 | 170 | ≥ 200000 | 220 | 14000 |  | CCOC(=O)c1sc(N(CCC(=O)NN=Cc2ccccc2)c2ccc(S(N)(=O)=O)cc2)nc1C [Compound 34, Ethyl 2-((3-(2-Benzylidenehydrazineyl)-3-oxopropyl)(4-sulfamoylphenyl)amino)-4-methylthiazole-5-carboxylate] |
| 6700 | 20000 | 33000 | 5000 | 14000 | 5000 | 33000 | 308 to 309 | 20000 | 1400 | ≥ 200000 | 25000 | 20000 |  | NS(=O)(=O)c1ccc(NCC(CC(=O)NN=Cc2ccc(C(=O)O)cc2)C(=O)NN=Cc2ccc(C(=O)O)cc2)cc1 (centres unmarked) [Compound 18a, 4,4′-(((2-(((4-Sulfamoylphenyl)amino)methyl)succinyl)bis(hydrazin-2-yl-1-ylidene))bis(methaneylylidene))dibenzoic acid] |
| 670 | 3300 | 3300 | 400 | ≥ 200000 | 130 | 2000 | 212 to 213 | 6700 | 100 | ≥ 200000 | 1700 | 2200 |  | CNC(=S)NNC(=O)CC(CNc1ccc(S(N)(=O)=O)cc1Cl)C(=O)NNC(=S)NC (centres unmarked) [Compound 22b] |
| 290 | 1400 | 670 | 240 | 130 | 140 | 4200 | 212 to 213 | 20000 | 100 | ≥ 200000 | 180 | 7900 |  | NS(=O)(=O)c1ccc(NCC(CC(=O)NN=Cc2ccccc2)C(=O)NN=Cc2ccccc2)c(Cl)c1 (centres unmarked) [Compound 6b, 4-((2-(2-(Benzylidene)hydrazine-1-carbonyl)-4-(2-(benzylidene)hydrazineyl)-4-oxobutyl)amino)-3-chlorobenzenesulfonamide] |
|  | 670 | 670 | 200 | 830 | 130 | 1000 | 226 to 227 | 2900 | 100 | ≥ 200000 | 250 | 14000 | 250 | NS(=O)(=O)c1ccc(NCC(CC(=O)NN=Cc2ccc(O)cc2)C(=O)NN=Cc2ccc(O)cc2)c(Cl)c1 (centres unmarked) [Compound 9b, 3-Chloro-4-((2-(2-(4-hydroxybenzylidene)hydrazine-1-carbonyl)-4-(2-(4-hydroxybenzylidene)hydrazineyl)-4-oxobutyl)amino)benzenesulfonamide] |
| 100000 | 3300 | 67000 | 4000 | 11000 | 6700 | 27000 | 170 to 171 | ≥ 200000 | 290 | ≥ 200000 | 8300 | 110000 |  | Cc1csc(N(CCC(=O)NN=Cc2ccccc2)c2ccc(S(N)(=O)=O)cc2)n1 [Compound 30, 4-((3-(2-Benzylidenehydrazineyl)-3-oxopropyl)(4-methylthiazol-2-yl)amino)benzenesulfonamide] |
| 170 | 170 | 200 | 25 | 1400 | 25 | 1400 | 175 to 176 | 38000 | 25 | 5000 | 400 | 630 |  | NS(=O)(=O)c1ccc(NCC(Cc2n[nH]c(=S)n2-c2ccccc2)c2n[nH]c(=S)n2-c2ccccc2)c(Cl)c1 (centres unmarked) [Compound 25b, 4-((2,3-bis(4-Phenyl-5-thioxo-4,5-dihydro-1H-1,2,4-triazol-3-yl)propyl)amino)-3-chlorobenzenesulfonamide] |
